According to patent US10201165B2 (Board of Trustees of Michigan State University, priority 2014, dated 2019):
Read-outs that look alike come from different tables or passages of the source.

Columns and labels:
fungi [1] = experiment: Antifungal activity (test not specified); conditions: compound identified from leaves of Prunus maackii
Cladosporium cucumerinum = experiment: TLC bioassay for detection of antimicrobial activity; format: cell-based; conditions: FIG. 3, white areas
Description: A TLC-bioassay of extract from Prunus maackii, P. serotina, and P. mahelab was conducted using three different extraction methods. Periderm tissue was extracted in 80% acetone, in hot water, or in water in an autoclave. Extracts were tested for antimicrobial activity by a thin layer chromatography bioassay on cellulose TLC plates. Samples were separated with, and the plates were developed in, water.
For the TLC bioassay for the detection of antimicrobial activity, 5 μL of the samples (column fractions, suspended in 80% methanol) were applied to Analtech® silica gel (TLC) plates and were developed in a TLC tank (30×20×10 cm) using 100 mL of chloroform:methanol (8.5:1, v/v). Within 24 hours of developing the TLC plates, the plates were evenly sprayed with a dense fungal suspension of C. cucumerinum in ½ strength potato-dextrose broth and then placed in a moist incubation chamber for three days to allow fungal growth.

fungi [2] = conditions: compound tentatively assigned to HPLC-MS peak around 255 g/mol; cited from earlier work

## COc1c(O)cc(O)c2c1OC(c1ccccc1)CC2=O (stereo not drawn) [Dihydrowogonin, 5,7-dihydroxy-8-methoxy-2-phenyl-2,3-dihydrochromen-4-one]
Fungi [1]
  Antifungal activity: antifungal activity

## COc1c(O)cc2oc(-c3ccccc3)c(O)c(=O)c2c1O [alnusin, 3,5,7-trihydroxy-6-methoxyflavone]
Cladosporium cucumerinum
  Fungal inhibition on TLC plate by isolated compounds: fungal inhibition

## O=C1C[C@@H](c2ccccc2)Oc2cc(O)cc(O)c21 [pinocembrin]
Fungi [2]
  Antifungal activity: antifungal activity
